{"source": "patent US10874641B2", "about": "“Methods of treating acute kidney injury” (Mitobridge, Inc., priority 2016, dated 2020)", "test_system": "ischemia/reperfusion induced kidney injury", "experiment": "rat model of ischemia/reperfusion induced kidney injury", "assay_type": "in vivo", "conditions": "Sprague Dawley rats after ischemic renal injury (45 min bilateral renal pedicle occlusion), veliparib 25 mg/kg BID PO", "description": "Acute kidney injury (AKI) is a clinical condition characterized by a rapid decline in kidney function and is often associated with high morbidity and mortality. The precise etiology of ischemia/reperfusion (I/R)-induced AKI is yet not fully understood and is thought to involve multiple factors. The prevention of acute kidney injury and its progression represents a great challenge particularly in renal transplanted patients. Therefore, animal models of renal ischemia/reperfusion (I/R) are important to understand pathophysiology and potential treatment strategies for AKI. The present study evaluated the efficacy of a test compound, namely veliparib (shown below),\n[drawing 8] in a rat model of ischemia/reperfusion induced kidney injury.\nSpecies: Rattus norvegicus\n3. Experimental Plan • i. All animals were numbered and kept in acclimatization for a period of 5-7 days, with 2 days acclimatization on metabolic cages before, initiation of the experiment. • ii. Animals were randomized into different treatment groups based on their body weight and assigned a permanent number. • iii. Body weight measurements were made once at randomization, also daily just prior to compound dosing and prior to termination. All body weights were recorded. • iv. Treatment with test compound(s) varied based on dose group (see table) that follows different dosing paradigms. The time of each dose administration was recorded. • 1. The dosing schedule for groups 1 and 2 was as follows: a 5 mL/kg BID dose with vehicle starting Day −1 through Day 2 with the final dose on Day 3 occurring 2 hours prior to takedown. • 2. The dosing schedule for group 3 with veliparib was 25 mg/kg BID starting on Day −1. […] After 45 min, the clips were removed, reperfusion was monitored (change in kidney color) for 1-2 min and the surgical sites were sutured. […] Postsurgical care and recovery: Animals were monitored until recovery from anesthesia and returned to their metabolic cage. […] For the 6 hour collection, urine volume was measured and recorded (to the nearest 1.0 mL) and samples were clarified by centrifugation (3000 rpm for 10 minutes). […]", "note": "Entries after “also recorded” stand apart in the source; their conditions may differ.", "data": [{"compound": "C[C@]1(c2nc3c(C(N)=O)cccc3[nH]2)CCCN1", "note": "[veliparib]", "values": [{"measurement": "induced increases in blood urea nitrogen (BUN)", "setting": "FIG. 2A/2B", "value": "attenuates"}, {"measurement": "induced increases in plasma creatinine levels", "setting": "FIG. 2A/2B", "value": "attenuates"}, {"measurement": "fractional excretion of sodium (a measurement of tubular injury)", "setting": "FIG. 3", "value": "improves; also recorded: attenuates"}]}]}
